Reference: ChEMBL document CHEMBL1140276, “Synthesis of 4(5)-phenylimidazole-based analogues of sphingosine-1-phosphate and FTY720: discovery of potent S1P1 receptor agonists” (Bioorg Med Chem Lett, 2005)
pEC50: −log10 of the molar value.

Experiments:
[1] = target: T1, Sphingosine 1-phosphate receptor 4 (Homo sapiens) (UniProt O95977); assay: Maximal efficacy against sphingosine 1-phosphate receptor 4 determined by a [c-35S]-GTP binding assay; no agonist activity
T1 sequence (whole entry): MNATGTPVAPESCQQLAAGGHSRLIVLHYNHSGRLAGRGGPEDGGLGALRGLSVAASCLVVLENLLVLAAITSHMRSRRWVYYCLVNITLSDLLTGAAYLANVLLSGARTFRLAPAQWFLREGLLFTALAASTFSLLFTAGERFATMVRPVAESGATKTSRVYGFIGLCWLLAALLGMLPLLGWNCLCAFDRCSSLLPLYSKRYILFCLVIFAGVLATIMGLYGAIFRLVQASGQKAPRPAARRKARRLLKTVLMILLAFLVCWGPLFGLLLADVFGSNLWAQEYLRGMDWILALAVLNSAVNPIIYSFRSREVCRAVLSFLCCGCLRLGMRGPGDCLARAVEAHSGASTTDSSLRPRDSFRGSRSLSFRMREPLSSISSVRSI

[2] = target: T2, Sphingosine 1-phosphate receptor 3 (Homo sapiens, UniProt Q99500); assay: Maximal efficacy against sphingosine 1-phosphate receptor 3 determined by a [c-35S]-GTP binding assay; no agonist activity
[3] = target: T3, Sphingosine 1-phosphate receptor 5 (Homo sapiens, UniProt Q9H228); assay: Maximal efficacy against sphingosine 1-phosphate receptor 5 determined by a [c-35S]-GTP binding assay
[4] = target: T4, Sphingosine 1-phosphate receptor 1 (Homo sapiens, UniProt P21453); assay: Maximal efficacy against sphingosine-1-phosphate receptor 1 determined by a [c-35S]-GTP binding assay
[5] = target: T5, Sphingosine 1-phosphate receptor 2 (Homo sapiens, UniProt O95136); assay: Maximal efficacy against sphingosine 1-phosphate receptor 2 determined by a [c-35S]-GTP binding assay; no agonist activity
[6] = target: T2, Sphingosine 1-phosphate receptor 3; assay: Maximal efficacy against sphingosine 1-phosphate receptor 3 determined by a [c-35S]-GTP binding assay
[7] = target: T1, Sphingosine 1-phosphate receptor 4 (Homo sapiens); assay: Maximal efficacy against sphingosine 1-phosphate receptor 4 determined by a [c-35S]-GTP binding assay
[8] = target: T5, Sphingosine 1-phosphate receptor 2; assay: Maximal efficacy against sphingosine 1-phosphate receptor 2 determined by a [c-35S]-GTP binding assay
[9] = target: T6, Sphingosine 1-phosphate receptor 4 (Homo sapiens, UniProt O95977); assay: Effective concentration against sphingosine 1-phosphate receptor 4 determined by a [c-35S]-GTP binding assay
T6 sequence (O95977 whole entry): T1 sequence (whole entry)

[10] = target: T2, Sphingosine 1-phosphate receptor 3; assay: Effective concentration against sphingosine 1-phosphate receptor 3 determined by a [c-35S]-GTP binding assay
[11] = target: T3, Sphingosine 1-phosphate receptor 5; assay: Effective concentration against sphingosine 1-phosphate receptor 5 determined by a [c-35S]-GTP binding assay
[12] = target: T4, Sphingosine 1-phosphate receptor 1; assay: Effective concentration against sphingosine-1-phosphate receptor 1 determined by a [c-35S]-GTP binding assay
[13] = target: T5, Sphingosine 1-phosphate receptor 2; assay: Maximal efficacy against sphingosine 1-phosphate receptor 2 determined by a [c-35S]-GTP binding assay;
[14] = target: T5, Sphingosine 1-phosphate receptor 2; assay: Effective concentration against sphingosine 1-phosphate receptor 2 determined by a [c-35S]-GTP binding assay

T4 sequence (P21453 whole entry): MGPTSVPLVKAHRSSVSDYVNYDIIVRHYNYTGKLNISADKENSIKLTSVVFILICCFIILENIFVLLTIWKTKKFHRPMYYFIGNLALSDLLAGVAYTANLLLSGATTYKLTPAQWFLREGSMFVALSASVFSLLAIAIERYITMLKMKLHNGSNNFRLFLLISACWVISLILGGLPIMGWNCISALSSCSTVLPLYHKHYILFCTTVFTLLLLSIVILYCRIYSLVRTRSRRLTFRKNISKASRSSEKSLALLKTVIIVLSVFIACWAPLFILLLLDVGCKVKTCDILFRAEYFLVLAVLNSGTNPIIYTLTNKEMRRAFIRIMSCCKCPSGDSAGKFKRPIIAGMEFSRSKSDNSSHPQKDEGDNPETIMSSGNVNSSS
T2 sequence (Q99500 whole entry): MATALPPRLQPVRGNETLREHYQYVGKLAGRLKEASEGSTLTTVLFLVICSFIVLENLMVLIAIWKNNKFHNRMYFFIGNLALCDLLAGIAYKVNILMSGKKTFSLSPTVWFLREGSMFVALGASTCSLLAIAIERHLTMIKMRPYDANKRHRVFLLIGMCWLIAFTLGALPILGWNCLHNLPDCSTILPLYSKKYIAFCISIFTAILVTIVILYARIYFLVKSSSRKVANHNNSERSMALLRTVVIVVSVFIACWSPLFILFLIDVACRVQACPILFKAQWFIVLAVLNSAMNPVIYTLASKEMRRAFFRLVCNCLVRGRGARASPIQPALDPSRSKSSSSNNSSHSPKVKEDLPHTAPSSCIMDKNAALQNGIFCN
T3 sequence (Q9H228 whole entry): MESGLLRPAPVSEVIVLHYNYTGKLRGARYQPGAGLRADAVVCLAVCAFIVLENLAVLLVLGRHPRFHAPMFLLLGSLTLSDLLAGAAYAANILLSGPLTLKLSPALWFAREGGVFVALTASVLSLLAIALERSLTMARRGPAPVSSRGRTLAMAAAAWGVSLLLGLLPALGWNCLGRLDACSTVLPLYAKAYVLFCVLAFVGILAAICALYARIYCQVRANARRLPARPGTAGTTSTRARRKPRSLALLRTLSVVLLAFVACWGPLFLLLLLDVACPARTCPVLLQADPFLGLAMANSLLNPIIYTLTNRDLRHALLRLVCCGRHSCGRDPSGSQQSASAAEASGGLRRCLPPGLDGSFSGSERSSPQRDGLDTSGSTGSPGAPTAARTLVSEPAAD
T5 sequence (O95136 whole entry): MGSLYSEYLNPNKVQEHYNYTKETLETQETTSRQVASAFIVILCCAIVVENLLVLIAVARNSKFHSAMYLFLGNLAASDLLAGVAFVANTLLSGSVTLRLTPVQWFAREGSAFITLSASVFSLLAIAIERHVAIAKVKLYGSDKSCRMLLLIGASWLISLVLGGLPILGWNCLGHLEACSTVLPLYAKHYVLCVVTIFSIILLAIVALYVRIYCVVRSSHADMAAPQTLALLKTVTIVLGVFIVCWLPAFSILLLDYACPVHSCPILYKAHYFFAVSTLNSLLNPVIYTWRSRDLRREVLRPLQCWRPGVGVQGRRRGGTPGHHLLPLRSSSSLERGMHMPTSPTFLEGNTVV

| SMILES | Emax [1] | Emax [2] | Emax [3] | Emax [4] | Emax [5] | Emax [6] | Emax [7] | Emax [8] | pEC50 [9] | pEC50 [10] | pEC50 [11] | pEC50 [12] | Emax [13] | pEC50 [14] |
| --- | --- | --- | --- | --- | --- | --- | --- | --- | --- | --- | --- | --- | --- | --- |
| CCCCCCCCCCCCC/C=C/[C@@H](O)[C@@H](N)COP(=O)(O)O |  |  | 1 | 1 |  | 1 | 1 | 1 |  |  |  |  |  |  |
| CCCCCCCCc1ccc(CCC(N)(CO)COP(=O)(O)O)cc1 (configuration not stated) |  |  | 0.56 | 1 |  | 0.5 | 0.78 | 0 | 7.39 |  |  |  |  |  |
| CCCCCCCCc1ccc(-c2c[nH]c(C(N)(CO)COP(O)(O)=S)n2)cc1 (configuration not stated) |  |  | 0.56 | 0.66 |  | 0.68 | 0.72 | 0 | 7.05 | 6.10 | 7.80 | 6.82 |  |  |
| CCCCCCCCc1ccc(-c2c[nH]c(C(C)(N)COP(O)(O)=S)n2)cc1 (configuration not stated) |  |  | 0.6 | 0.87 |  | 0.44 | 0.68 | 0 | 6.77 | 5.80 | 7.29 | 8.01 |  |  |
| CCCCCCCCc1ccc(-c2c[nH]c([C@@H](N)COP(=O)(O)O)n2)cc1 |  |  | 0.69 | 0.69 |  | 0.42 | 0.79 |  | 6.82 | 6.48 | 7.92 | 8.40 | 0 |  |
| CCCCCCCCc1ccc(-c2c[nH]c([C@@H](N)COP(O)(O)=S)n2)cc1 |  |  | 0.82 | 0.67 |  | 0.45 | 0.82 | 0 | 6.72 | 6.16 | 7.54 | 8.19 |  |  |
| CCCCCCCCc1ccc(-c2c[nH]c([C@H](N)COP(=O)(O)O)n2)cc1 |  |  | 0.73 | 0.75 |  | 0.56 | 1 | 0 | 6.40 | 5.77 | 7.43 | 8.15 |  |  |

Continued, values first:

| Emax [1] | Emax [2] | Emax [3] | Emax [4] | Emax [5] | Emax [6] | Emax [7] | Emax [8] | pEC50 [9] | pEC50 [10] | pEC50 [11] | pEC50 [12] | Emax [13] | pEC50 [14] | SMILES |
| --- | --- | --- | --- | --- | --- | --- | --- | --- | --- | --- | --- | --- | --- | --- |
| 0 | 0 | 0 | 0 | 0 |  |  |  |  |  |  |  |  |  | CCCCCCCCc1ccc(-c2c[nH]c(C(C)(N)CO)n2)cc1 (configuration not stated) |
|  |  | 0.48 | 0.66 |  | 0 | 0.79 | 0 | 6.18 |  | 5.17 | 5.29 |  |  | CCCCCCCCc1ccc(-c2c[nH]c(C(N)(CO)CO)n2)cc1 |
|  |  | 0.72 | 0.88 |  | 0.53 | 0.94 | 0 | 7.04 | 6.11 | 7.59 | 8.33 |  |  | CCCCCCCCc1ccc(-c2c[nH]c(C(C)(N)COP(=O)(O)O)n2)cc1 (configuration not stated) |
|  |  | 0.66 | 0.91 |  | 0.21 | 0.87 | 0.95 | 6.80 | 6.20 | 7.77 | 8.10 |  | 7.74 | CCCCCCCCc1ccc(-c2c[nH]c(C(N)(CO)COP(=O)(O)O)n2)cc1 (configuration not stated) |
|  |  | 0.83 | 0.98 |  | 0.38 | 0.9 | 0 | 5.13 | 5.57 | 6.07 | 5.57 |  |  | CCCCCCCCc1ccc(-c2c[nH]c([C@H](N)CO)n2)cc1 |
